Experimental data reported in patent US12145943B2, “Solid forms of 3-(5-Fluorobenzofuran-3-yl)-4-(5-methyl-5H-[1,3]dioxolo[4,5-f]indol-7-yl)pyrrole-2,5-dione” (Actuate Therapeutics Inc., priority 2017, dated 2024).
Converted amounts (≈) assume the structure as drawn.

How the values were obtained:
Format in all cases: physicochemical
[1] = Aqueous solubility study (water or buffers, HPLC of filtrate, XRPD of remaining solids); settings: for solubility: shaken 200 rpm 24 h
Description: The solubility of 9-ING-41 polymorphic forms in water or buffers were determined using HPLC under the following conditions: • Instrument: Agilent 1260 Infinity Series • Diluent: Acetonitrile • Flow rate: 1.5 mL/min • Mobile phase: A: 0.05% TFA in water • B: 0.05% TFA in Acetonitrile • Injection volume: 1 μL • Column: XDB-C18, 4.6*50 mm, 1.8 μm • Column Temperature: 40° C. • Detection: 220 nm • Run Time: 8 minutes (2 minutes delay for next injection) • Gradient (T/B %): 0.0/70, 6.0/100, 8.0/100 10-30 mg of 9-ING-41 Form I was added to 2 mL of water or a buffer solution buffered at pH=1.2, 4.5, or 6.8. The samples were shaken at 200 rpm in a shaker for 24 h. The sample vials were visually examined to ensure saturation. 1 mL of each suspension was filtered at 24 hours through a 0.22 µm nylon syringe filter into another clean clear glass vial. The filtrate was analyzed using HPLC (accurately dilute if necessary) and the remaining solids were analyzed using XRPD.

[2] = Solubility in 30% acetonitrile in water (HPLC of filtrate, XRPD of remaining solids)
Description: The solubility of 9-ING-41 polymorphic forms in 30% Acetonitrile in water was determined using HPLC under the following conditions: • Instrument: Agilent 1260 Infinity Series • Diluent: 30% acetonitrile aqueous solution • Flow rate: 1.5 mL/min • Mobile phase: A: 0.05% TFA in water • B: 0.05% TFA in acetonitrile • Injection volume: […] • Column: XDB-C18, 4.6*50 mm, 1.8 μm • Column Temperature: 40° C. • Detection: 220 nm • Run Time: 8 minutes (2 minutes delay for next injection) • Gradient (T/B %): 0.0/70, 6.0/100, 8.0/100
About 5 mg of 9-ING-41 Form I was added into 2 mL of 30% acetonitrile/70% water (vol/vol). The sample was shaken at 200 rpm in a shaker for 24 h. The vial was visually examined to ensure saturation. 1 mL of the suspension was filtered through a 0.22 µm nylon syringe filter into another clean clear glass vial at 2 hours and at 24 hours. The filtrates were analyzed using HPLC (accurately dilute if necessary) and the remaining solids were analyzed using XRPD.

[3] = Dynamic vapor sorption (DVS) analysis; settings: 80% relative humidity, 25.0±1.0° C.
Description: DVS analyses were conducted on an IGAsorp (HidenIsochema Ltd.). For an isotherm test, the chamber temperature was maintained by a water bath at constant 25.0±1.0° C.

[4] = Mechanical and pressure effects on crystalline form (XRPD)
Description: XRPD analyses were performed using an X-ray diffractometer (Bruker D8 advance) equipped with LynxEye detector. The instrument parameters were listed below. • Scan: 3° (2θ) to 40° (2θ) • Increment: 0.02° (2θ) • Scan speed: 0.3 sec/step • Voltage: 40 KV • Current: 40 mA • Rotation: On • Sample hold: Zero-background sample holder TGA Analysis 9.90 mg of 9-ING-41 Form I was weighed into mortar and ground for 5 min. […] 9-ING-41 Form I was pressed into two tablets. The weight of tablets was 38.9 mg and 36.2 mg, respectively.

| Structure (SMILES) | crystalline form of remaining solids (XRPD) ([1]; after 24 h in water or pH 1.2, 4.5, 6.8 buffer) | solubility ([1]; pH 1.2 buffer) | solubility ([1]; pH 4.5 buffer) | solubility ([1]; pH 6.8 buffer) | 9-ING-41 in the filtrates by HPLC ([1]; water or pH 1.2, 4.5, 6.8 buffer, filtrate at 24 hours) | solubility ([1]; water) | crystalline form of remaining solids (XRPD) ([2]; after shaking in 30% acetonitrile/70% water) | solubility at 24 h ([2]; aqueous with cosolvent or surfactant or cyclodextrin, thermodynamic from solid, 30% acetonitrile/70% water (vol/vol), after 24 hours, read-out: 9-ING-41 in filtrate (solubility) by HPLC) [µg/mL] | solubility at 2 h ([2]; aqueous with cosolvent or surfactant or cyclodextrin, thermodynamic from solid, 30% acetonitrile/70% water (vol/vol), after two hours, read-out: 9-ING-41 in filtrate (solubility) by HPLC) [µg/mL] | weight gain (DVS) [3] | crystalline form after grinding (XRPD) ([4]; ground in mortar for 5 min) | crystalline form after pressing into tablets (XRPD) ([4]; pressed into tablets, then ground into powder) | solubility at 30 min ([2]; aqueous with cosolvent or surfactant or cyclodextrin, thermodynamic from solid, 30% acetonitrile/70% water (vol/vol), after 30 minutes) [µg/mL] |
| --- | --- | --- | --- | --- | --- | --- | --- | --- | --- | --- | --- | --- | --- |
| Cn1cc(C2=C(c3coc4ccc(F)cc34)C(=O)NC2=O)c2cc3c(cc21)OCO3 [9-ING-41 Form I, 3-(5-fluoro-1-benzofuran-3-yl)-4-[5-methyl-2H,5H-[1,3]dioxolo[4,5-f]indol-7-yl]-2,5-dihydro-1H-pyrrole-2,5-dione] | no change in crystalline form | poor | poor | poor | could not be detected | poor | no change in crystalline form | 48 (≈ 119 µM) | 46 (≈ 114 µM) | about 0.23 % by weight | had not changed | had not changed | – |
| Cn1cc(C2=C(c3coc4ccc(F)cc34)C(=O)NC2=O)c2cc3c(cc21)OCO3 [Amorphous 9-ING-41, 3-(5-fluorobenzofuran-3-yl)-4-(5-methyl-5H-[1,3]dioxolo[4,5-f]indol-7-yl)pyrrole-2,5-dione] | – | – | – | – | – | – | – | – | – | – | – | – | 57 (≈ 141 µM) |
